From PubChem BioAssay (NCI)
“And” between values parts separate entries of the source, which are not always exact repeats. Equal values may be shown once.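 Briefly, cells in 96-well plates were exposed to five compound concentrations for 48 h, and endpoints were estimated by linear interpolation. Here, GI50 denotes the concentration required for 50% inhibition of growth. TGI is the concentration that stops growth completely.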

Tests used:
Experiment in all cases: NCI tumour cell line growth inhibition, 48 h
NCI-H23 lung = test system: NCI-H23 lung
LXFL 529 NSCLC = test system: LXFL 529 NSCLC
NCI-H460 lung = test system: NCI-H460 lung
KM12 colon = test system: KM12 colon
786-0 renal = test system: 786-0 renal
OVCAR-8 ovarian = test system: OVCAR-8 ovarian
NCI-H226 lung = test system: NCI-H226 lung
RXF 393 renal = test system: RXF 393 renal
SF-268 CNS = test system: SF-268 CNS
ACHN renal = test system: ACHN renal
SK-MEL-2 melanoma = test system: SK-MEL-2 melanoma
DLD-1 colon = test system: DLD-1 colon
HT29 colon = test system: HT29 colon
MDA-MB-231 breast = test system: MDA-MB-231 breast
XF 498 CNS = test system: XF 498 CNS
TK-10 renal = test system: TK-10 renal
T-47D breast = test system: T-47D breast
UACC-62 melanoma = test system: UACC-62 melanoma
RXF-631 renal = test system: RXF-631 renal
MALME-3M melanoma = test system: MALME-3M melanoma
M14 melanoma = test system: M14 melanoma
SK-OV-3 ovarian = test system: SK-OV-3 ovarian
M19-MEL melanoma = test system: M19-MEL melanoma
OVCAR-3 ovarian = test system: OVCAR-3 ovarian
SK-MEL-5 melanoma = test system: SK-MEL-5 melanoma
DMS 114 small cell lung = test system: DMS 114 small cell lung
MDA-N = test system: MDA-N
SK-MEL-28 melanoma = test system: SK-MEL-28 melanoma
UACC-257 melanoma = test system: UACC-257 melanoma
SN12K1 renal = test system: SN12K1 renal
KM20L2 colon = test system: KM20L2 colon
CAKI-1 renal = test system: CAKI-1 renal
HCT-15 colon = test system: HCT-15 colon
RPMI-8226 leukemia = test system: RPMI-8226 leukemia
OVCAR-5 ovarian = test system: OVCAR-5 ovarian
A498 renal = test system: A498 renal
EKVX NSCLC = test system: EKVX NSCLC
DU-145 prostate = test system: DU-145 prostate
HS 578T breast = test system: HS 578T breast
HOP-18 NSCLC = test system: HOP-18 NSCLC
CCRF-CEM leukemia = test system: CCRF-CEM leukemia
SNB-19 CNS = test system: SNB-19 CNS
HCC-2998 colon = test system: HCC-2998 colon
HOP-62 NSCLC = test system: HOP-62 NSCLC
PC-3 prostate = test system: PC-3 prostate
HL-60(TB) leukemia = test system: HL-60(TB) leukemia
NCI/ADR-RES ovarian = test system: NCI/ADR-RES ovarian
U251 CNS = test system: U251 CNS
HOP-92 NSCLC = test system: HOP-92 NSCLC
P388/ADR leukemia = test system: P388/ADR leukemia
OVCAR-4 ovarian = test system: OVCAR-4 ovarian
SF-539 CNS = test system: SF-539 CNS
SF-295 CNS = test system: SF-295 CNS

SMILES: CC[C@@]1(O)C[C@H](OC2CC(N(C)C)C(OC3CC(O)C(OC4CCC(=O)C(C)O4)C(C)O3)C(C)O2)c2c(cc3c(c2O)C(=O)c2c(O)cccc2C3=O)[C@H]1C(=O)OC (stereo not given in full)
- TGI (NCI-H23 lung): 120 nM and 125 nM
- GI50 (LXFL 529 NSCLC): 4.22 nM
- TGI (LXFL 529 NSCLC): 1140 nM
- TGI (NCI-H460 lung): 60 nM and 66.2 nM
- TGI (KM12 colon): 519 nM and 560 nM
- TGI (786-0 renal): 250 nM and 476 nM
- TGI (OVCAR-8 ovarian): 956 nM and 404 nM
- TGI (NCI-H226 lung): 94.8 nM and 130 nM
- TGI (RXF 393 renal): 34.5 nM and 124 nM
- TGI (SF-268 CNS): 371 nM and 2790 nM
- TGI (ACHN renal): 579 nM
- TGI (SK-MEL-2 melanoma): 118 nM
- GI50 (DLD-1 colon): 9.12 nM and 7.88 nM
- TGI (DLD-1 colon): 1150 nM and 1170 nM
- TGI (HT29 colon): 903 nM and 318 nM
- TGI (MDA-MB-231 breast): 198 nM
- GI50 (XF 498 CNS): 6.81 nM and 28.2 nM and 23.6 nM
- TGI (XF 498 CNS): 165 nM and 55.2 nM
- TGI (TK-10 renal): 932 nM and 373 nM
- TGI (T-47D breast): 472 nM and 2630 nM
- TGI (UACC-62 melanoma): 49.1 nM and 115 nM
- TGI (RXF-631 renal): 66.4 nM
- TGI (MALME-3M melanoma): 99.1 nM and 128 nM
- TGI (M14 melanoma): 149 nM
- TGI (SK-OV-3 ovarian): 1310 nM and 5140 nM
- TGI (M19-MEL melanoma): 144 nM and 279 nM
- TGI (OVCAR-3 ovarian): 600 nM and 169 nM
- TGI (SK-MEL-5 melanoma): 59.2 nM and 164 nM
- TGI (DMS 114 small cell lung): 154 nM and 173 nM
- TGI (MDA-N): 48.5 nM and 131 nM
- TGI (SK-MEL-28 melanoma): 142 nM and 453 nM
- TGI (UACC-257 melanoma): 179 nM and 260 nM
- TGI (SN12K1 renal): 101 nM
- GI50 (KM20L2 colon): 5.95 nM and 2.75 nM
- TGI (KM20L2 colon): 249 nM and 1070 nM
- TGI (CAKI-1 renal): 179 nM and 373 nM
- TGI (HCT-15 colon): 436 nM and 826 nM
- GI50 (RPMI-8226 leukemia): 9.04 nM and 4.47 nM
- TGI (RPMI-8226 leukemia): 261 nM and 743 nM
- TGI (OVCAR-5 ovarian): 220 nM and 457 nM
- TGI (A498 renal): 53.9 nM and 59.9 nM
- TGI (EKVX NSCLC): 415 nM and 452 nM
- TGI (DU-145 prostate): 420 nM and 1730 nM
- TGI (HS 578T breast): 135 nM
- TGI (HOP-18 NSCLC): 854 nM and 2720 nM
- GI50 (CCRF-CEM leukemia): 7.79 nM and 2.2 nM
- TGI (CCRF-CEM leukemia): 700 nM and 2690 nM
- TGI (SNB-19 CNS): 1980 nM and 2210 nM
- TGI (HCC-2998 colon): 74.6 nM and 351 nM
- TGI (HOP-62 NSCLC): 139 nM and 504 nM
- TGI (PC-3 prostate): 132 nM and 62 nM
- GI50 (HL-60(TB) leukemia): 8.66 nM and 3.9 nM
- TGI (HL-60(TB) leukemia): 61.3 nM and 177 nM
- TGI (NCI/ADR-RES ovarian): 696 nM and 878 nM
- TGI (U251 CNS): 2110 nM and 2490 nM
- TGI (HOP-92 NSCLC): 129 nM and 161 nM
- TGI (P388/ADR leukemia): 659 nM
- TGI (OVCAR-4 ovarian): 221 nM and 196 nM
- TGI (SF-539 CNS): 91.7 nM and 216 nM
- TGI (SF-295 CNS): 224 nM and 920 nM
